Test results taken from patent US9108944B2, “Androgen receptor modulators and uses thereof” (ARAGON PHARMACEUTICALS, INC., priority 2010, dated 2015).

Each compound was assayed against T1, AR-VP16 (Homo sapiens, UniProt P10275) (assay: AR-VP16 DNA Binding Assay, antagonist mode (HepG2 cells, 0.1 nM R1881)).
T1 sequence (P10275 560-920 limits assumed): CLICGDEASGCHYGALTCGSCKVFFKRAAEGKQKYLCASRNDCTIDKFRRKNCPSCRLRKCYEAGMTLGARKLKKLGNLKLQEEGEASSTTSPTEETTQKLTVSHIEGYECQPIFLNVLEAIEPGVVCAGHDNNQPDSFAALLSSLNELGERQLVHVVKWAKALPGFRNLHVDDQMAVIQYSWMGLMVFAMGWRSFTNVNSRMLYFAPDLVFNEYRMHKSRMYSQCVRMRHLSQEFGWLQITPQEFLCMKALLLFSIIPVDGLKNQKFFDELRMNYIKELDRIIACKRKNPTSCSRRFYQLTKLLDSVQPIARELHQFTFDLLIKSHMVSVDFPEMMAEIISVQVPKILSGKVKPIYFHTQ
Type: cell-based
Method: Cells were transiently transfected using Lipofectin (Life Technologies) according to the manufacturer's protocol. […] Transfected cells were incubated overnight then treated with ligand. […] For antagonist assays, the compounds were serially diluted and 50 μL of compound with RPMI supplemented with charcoal stripped serum plus methyltrienolone (R1881) were added to the cells. The final R1881 concentration used in the antagonist assays was 0.1 nM. Following 48 hour incubation the medium was removed and the cells were lysed in 40 μL of lysis buffer (25 mM Tris Phosphate, 2 mM CDTA, 10% Glycerol, 0.5% Triton X-100, 2 mM DTT).

SMILES | IC50 [nM]
N#Cc1ncc(N2C(=O)C3(CCC3)N(c3ccc(OCCN4CCNCC4)c(F)c3)C2=S)cc1C(F)(F)F [Compound 174, 5-(5-(3-fluoro-4-(2-(piperazin-1-yl)ethoxy)phenyl)-8-oxo-6-thioxo-5,7-diazaspiro[3.4]octan-7-yl)-3-(trifluoromethyl)picolinonitrile] | < 1000
N#Cc1ccc(N2C(=O)C3(CCC3)N(c3ccc(O)c(F)c3)C2=S)c2cccnc12 [Compound 55, 5-(5-(3-Fluoro-4-hydroxyphenyl)-8-oxo-6-thioxo-5,7-diazaspiro[3.4]octan-7-yl)quinoline-8-carbonitrile] | < 1000
N#Cc1ncc(N2C(=O)C3(CCC3)N(c3cccc4ccccc34)C2=S)cc1C(F)(F)F [Compound 110, 5-(5-(Naphthalen-1-yl)-8-oxo-6-thioxo-5,7-diazaspiro[3.4]octan-7-yl)-3-(trifluoromethyl)picolinonitrile] | < 1000
CN1CCN(CCCc2ccc(N3C(=S)N(c4cnc(C#N)c(C(F)(F)F)c4)C(=O)C34CCC4)cc2)CC1 [Compound 124, 5-(5-(4-(3-(4-Methylpiperazin-1-yl)propyl)phenyl)-8-oxo-6-thioxo-5,7-diazaspiro[3.4]octan-7-yl)-3-(trifluoromethyl)picolinonitrile] | < 1000
N#Cc1ncc(N2C(=O)C3(CCC3)N(c3cccc(CO)c3)C2=S)cc1C(F)(F)F [Compound 67, 5-(5-(3-(Hydroxymethyl)phenyl)-8-oxo-6-thioxo-5,7-diazaspiro[3.4]octan-7-yl)-3-(trifluoromethyl)picolinonitrile] | < 1000
Cc1ccccc1CCOc1ccc(N2C(=S)N(c3cnc(C#N)c(C(F)(F)F)c3)C(=O)C23CCC3)cc1F [Compound 137, 5-(5-(3-Fluoro-4-(2-methylphenethoxy)phenyl)-8-oxo-6-thioxo-5,7-diazaspiro[3.4]octan-7-yl)-3-(trifluoromethyl)picolinonitrile] | < 1000
N#Cc1ncc(N2C(=O)C3(CCC3)N(c3ccc(OCCC4CCCCC4)c(F)c3)C2=S)cc1C(F)(F)F [Compound 179, 5-(5-(4-(2-Cyclohexylethoxy)-3-fluorophenyl)-8-oxo-6-thioxo-5,7-diazaspiro[3.4]octan-7-yl)-3-(trifluoromethyl)picolinonitrile] | < 1000
Cc1cc(N2C(=O)C3(CCC3)N(c3ccc(Oc4ccncn4)cc3)C2=S)cnc1C#N [Compound 209, 3-Methyl-5-(8-oxo-5-(4-(pyrimidin-4-yloxy)phenyl)-6-thioxo-5,7-diazaspiro[3.4]octan-7-yl)picolinonitrile] | < 1000
Cc1cc(N2C(=O)C3(CCC3)N(c3ccc(OCCN4CCN(CC(F)(F)F)CC4)cc3)C2=S)cnc1C#N [Compound 199, 3-Methyl-5-(8-oxo-6-thioxo-5-(4-(2-(4-(2,2,2-trifluoroethyl)piperazin-1-yl)ethoxy)phenyl)-5,7-diazaspiro[3.4]octan-7-yl)picolinonitrile] | < 1000
N#Cc1ncc(N2C(=O)C3(CCC3)N(c3ccc(OCc4cccnc4)c(F)c3)C2=S)cc1C(F)(F)F [Compound 148, 5-(5-(3-Fluoro-4-(pyridin-3-ylmethoxy)phenyl)-8-oxo-6-thioxo-5,7-diazaspiro[3.4]octan-7-yl)-3-(trifluoromethyl)picolinonitrile] | < 1000
N#Cc1ncc(N2C(=O)C3(CCC3)N(c3ccc(Oc4ccccn4)cc3)C2=S)cc1C(F)(F)F [Compound 41, 5-(8-Oxo-5-(4-(pyridin-2-yloxy)phenyl)-6-thioxo-5,7-diazaspiro[3.4]octan-7-yl)-3-(trifluoromethyl)picolinonitrile] | < 1000
CN1CCC(Oc2ccc(N3C(=S)N(c4cnc(C#N)c(C(F)(F)F)c4)C(=O)C34CCC4)cc2F)CC1 [Compound 193, 5-(5-(3-Fluoro-4-((1-methylpiperidin-4-yl)oxy)phenyl)-8-oxo-6-thioxo-5,7-diazaspiro[3.4]octan-7-yl)-3-(trifluoromethyl)picolinonitrile] | < 1000
N#Cc1ncc(N2C(=O)C3(CCC3)N(c3ccc(-c4cccnc4)cc3)C2=S)cc1C(F)(F)F [Compound 17, 5-(8-Oxo-5-(4-(pyridin-3-yl)phenyl)-6-thioxo-5,7-diazaspiro[3.4]octan-7-yl)-3-(trifluoromethyl)picolinonitrile] | < 1000
N#Cc1ncc(N2C(=O)C3(CCC3)N(c3ccc(Oc4ncccn4)cc3)C2=S)cc1C(F)(F)F [Compound 206, 5-(8-Oxo-5-(4-(pyrimidin-2-yloxy)phenyl)-6-thioxo-5,7-diazaspiro[3.4]octan-7-yl)-3-(trifluoromethyl)picolinonitrile] | < 1000
N#Cc1ncc(N2C(=O)C3(CCC3)N(c3cc(F)ccc3F)C2=S)cc1C(F)(F)F [Compound 74, 5-(5-(2,5-Difluorophenyl)-8-oxo-6-thioxo-5,7-diazaspiro[3.4]octan-7-yl)-3-(trifluoromethyl)picolinonitrile] | < 1000
N#Cc1ccc(N2C(=S)N(c3cnc(C#N)c(C(F)(F)F)c3)C(=O)C23CCC3)cc1F [Compound 56, 5-(5-(4-Cyano-3-fluorophenyl)-8-oxo-6-thioxo-5,7-diazaspiro[3.4]octan-7-yl)-3-(trifluoromethyl)picolinonitrile] | < 1000
Cc1cc(N2C(=O)C3(CCC3)N(c3ccc(C(=O)NCc4ccccc4)c(F)c3)C2=S)cnc1C#N [Compound 273, N-Benzyl-4-(7-(6-cyano-5-methylpyridin-3-yl)-8-oxo-6-thioxo-5,7-diazaspiro[3.4]octan-5-yl)-2-fluorobenzamide] | < 1000
CN1CCN(CCCOc2ccc(N3C(=S)N(c4cnc(C#N)c(C(F)(F)F)c4)C(=O)C34CCC4)cc2F)CC1 [Compound 157, 5-(5-(3-Fluoro-4-(3-(4-methylpiperazin-1-yl)propoxy)phenyl)-8-oxo-6-thioxo-5,7-diazaspiro[3.4]octan-7-yl)-3-(trifluoromethyl)picolinonitrile] | < 1000
CNC(=O)c1ccc(N2C(=S)N(c3cnc(C#N)c4ccccc34)C(=O)C23CCC3)cc1F [Compound 66, 4-(7-(1-Cyanoisoquinolin-4-yl)-8-oxo-6-thioxo-5,7-diazaspiro[3.4]octan-5-yl)-2-fluoro-N-methylbenzamide] | < 1000
CNC(=O)c1ccc(N2C(=S)N(c3cnc(C#N)c(C(F)(F)F)c3)C(=O)C2(C)C)cc1F [Compound 43, 4-(3-(6-Cyano-5-(trifluoromethyl)pyridin-3-yl)-5,5-dimethyl-4-oxo-2-thioxoimidazolidin-1-yl)-2-fluoro-N-methylbenzamide] | < 1000
N#Cc1ncc(N2C(=O)C3(CCC3)N(c3ccc4ccncc4c3)C2=S)cc1C(F)(F)F [Compound 52, 5-(5-(Isoquinolin-7-yl)-8-oxo-6-thioxo-5,7-diazaspiro[3.4]octan-7-yl)-3-(trifluoromethyl)picolinonitrile] | < 1000
N#Cc1ccc(N2C(=S)N(c3cnc(C#N)c(C(F)(F)F)c3)C(=O)C23CCC3)c(F)c1 [Compound 70, 5-(5-(4-Cyano-2-fluorophenyl)-8-oxo-6-thioxo-5,7-diazaspiro[3.4]octan-7-yl)-3-(trifluoromethyl)picolinonitrile] | < 1000
N#Cc1ncc(N2C(=O)C3(CCC3)N(c3ccc(C(=O)NCc4ccccc4)c(F)c3)C2=S)cc1C(F)(F)F [Compound 235, N-Benzyl-4-(7-(6-cyano-5-(trifluoromethyl)pyridin-3-yl)-8-oxo-6-thioxo-5,7-diazaspiro[3.4]octan-5-yl)-2-fluorobenzamide] | < 1000
